From patent publication US20210169854A1, “3'-[(2Z)-[1-(3,4-dimethylphenyl)-1,5-dihydro-3-methyl-5-oxo-4H-pyrazol-4-ylidene]hydrazino]-2'-hydroxy-[1,1'-biphenyl]-3-carboxylic acid and its salts formulation” (NOVARTIS AG, priority 2019, published 2021)
Where two headings read alike, the source gives them in different places.

Tests used:
[1] = cited from earlier work
[2] = Solubility and permeability of eltrombopag (general statements, data not shown); assay type: physicochemical; details: even in the form of bis-monoethanolamine salt
[3] = standard high-fat breakfast; cited from earlier work
[4] = cited from earlier work; remark: listed apart in the source
[5] = cited from earlier work; remark: listed apart in the source
[6] = single 25-mg dose for oral suspension 2 hours after the high-calcium meal
[7] = single 25-mg dose for oral suspension 2 hours before the high-calcium meal
[8] = single 25-mg dose for oral suspension with a high-calcium, moderate-fat, moderate-calorie meal

| solubility in water and in a number of liquid/semisolid surfactants [2] | Structure (SMILES) | AUC elevation compared with the fasted state ([1]; after a high fat meal) [fold] | Cmax elevation compared with the fasted state ([1]; after a high fat meal) [fold] | AUC elevated compared with the fasted state ([1]; after a low fat meal) [fold] | Cmax elevated compared with the fasted state ([1]; after a low fat meal) [fold] | decrease of plasma eltrombopag AUCO-∞ [3] | decrease of plasma eltrombopag Cmax [3] [%] | reduction of plasma eltrombopag AUCO-∞ [4, 6] [%] | reduction of plasma eltrombopag Cmax [4, 6] [%] | reduction of plasma eltrombopag AUCO-∞ [4, 7] [%] | reduction of plasma eltrombopag Cmax [4, 7] [%] | reduction of plasma eltrombopag AUCO-∞ [4, 8] [%] | reduction of plasma eltrombopag Cmax [4, 8] [%] | solubility (BCS context) [5] |
| --- | --- | --- | --- | --- | --- | --- | --- | --- | --- | --- | --- | --- | --- | --- |
|  | C[C@]12CC[C@H](O)CC1=CC[C@@H]1[C@@H]2CC[C@]2(C)C(c3cccnc3)=CC[C@@H]12 [abiraterone] | 10 | 17 | 5 | 7 |  |  |  |  |  |  |  |  |  |
| low solubility | CC1=NN(c2ccc(C)c(C)c2)C(=O)/C1=N\Nc1cccc(-c2cccc(C(=O)O)c2)c1O [eltrombopag, 3′-[(2Z)-[1-(3,4-dimethylphenyl)-1,5-dihydro-3-methyl-5-oxo-4H-pyrazol-4-ylidene]hydrazino]-2′-hydroxy-[1,1′-biphenyl]-3-carboxylic acid] |  |  |  |  | approximately 59% | 65 | 47 | 48 | 20 | 14 | 75 | 79 | low soluble |
